# Laboratory results from PMC7278776, “Multidrug Resistance Modulation Activity of Silybin Derivatives and Their Anti-Inflammatory Potential” (Antioxidants, 2020).
# Tested on: A2780/DOX
# Assay: Viability of A2780/DOX cells (resazurin)
# Conditions: Homo sapiens, A2780, read-out: IC50 (µM), concentration necessary to halve cell viability
# Description: To determine the NO production, the medium was mixed with Griess reagent (0.04 g/mL, prepared in deionized water) in a 1:1 ratio. After 15 min, absorbance was recorded at 540 nm. To determine cell viability, the resazurin solution (0.03 mg/mL in PBS) was added to the cells. After 2 h of incubation, fluorescence was recorded (560/590 nm, ex./em.).
# A multidrug resistant ovarian sub-line resistant to doxorubicin (A2780/DOX, Sigma-Aldrich) was cultivated in DMEM medium with 10% FBS and 1 × antibiotic antimycotic solution. Every other passage, doxorubicin at the final concentration of 0.1 µM was added to the culture medium to maintain the resistance of the cell line. To perform experiments, the cells were seeded at 1 × 10^5 cell/mL into the wells of a 96-well plate and incubated for 24 h. Afterwards, the cells were washed with PBS and fresh DMEM medium with tested compounds at 10, 20 and 30 µM were added to each well, except for the control wells. Subsequently, the cells were exposed to increasing concentrations of doxorubicin (0.6–20 µM) for 72 h. After incubation, the resazurin assay was performed as described above. The IC50 of doxorubicin was calculated for both the control and the samples and the fold change was counted up. […] The fold change lower than 1 means an antagonistic effect. (1) FOLD CHANGE=IC50 value of DOX cells treated with chemotherapeutic /IC50 value of DOX cells treated with chemotherapeutic and compound
row,SMILES,IC50 [µM]
1,"COc1cc([C@H]2Oc3cc(-c4oc5cc(O)cc(O)c5c(=O)c4O)ccc3O[C@@H]2CO)ccc1O [Dehydrosilybin A, 2,3-dehydrosilybin A]",74.4 ± 4.8
2,"COc1cc(C2Oc3cc(-c4oc5cc(O)cc(O)c5c(=O)c4O)ccc3OC2CO)ccc1O (stereo not drawn) [Dehydrosilybin AB, 2,3-dehydrosilybin]",33.6 ± 0.4
3,"COc1cc([C@@H]2Oc3cc(-c4oc5cc(O)cc(O)c5c(=O)c4O)ccc3O[C@H]2CO)ccc1O [Dehydrosilybin B, 2,3-dehydrosilybin B]",27.1 ± 0.4

# Tested on: ABCF3
# Assay: ABCF3 mRNA expression (real-time PCR)
# Format: cell-based, human
# Conditions: A2780/DOX, 10 µM combined with doxorubicin at IC25, 48 h
# Description: The A2780/DOX cell line was seeded into 5 cm Petri dishes with DMEM medium at 1 × 10^5 cell/mL. […] After 48 h of treatment, the cells were washed with PBS and harvested using the standard trypsin-EDTA procedure. The harvested cells were centrifuged (3200× g; 10 min, 4 °C). The supernatant was discarded, and the pellets were washed with 1.5 mL of cooled PBS (5400× g; 10 min, 4 °C). The washing step was repeated with 1 mL of PBS and the cells were centrifuged again (10,000× g; 3 min, 4 °C). Afterwards, the pellets were resuspended in 1 mL of Trizol (Invitrogen, Carlsbad, CA, USA) and transferred into pre-cooled RNase-free microfuge tubes. The samples were stored at −80 °C.
# (§1) A Quant-iT RiboGreen RNA Assay Kit (Invitrogen) was used to determine the RNA concentration using the Infinite M200 plate reader (Tecan, Männedor, Switzerland). The cDNA was prepared from 0.5 µg of total RNA using a RevertAid First Strand Synthesis cDNA Kit (MBI Fermentas, Vilnius, Lithuania). The amplification of the ubiquitin C gene fragment was used to determine the quality of cDNA.
# (§2) The experiment was performed using the ViiA7 Real-Time polymerase chain reaction (PCR) System (Life Technologies, Camarillo, CA, USA) with a 384-well block. Before quantitative real-time PCR, the master mix was prepared by mixing 2 µL of 8 × diluted cDNA, 1.75 µL of RNase free water, 1 µL of 5 × HotFIREPol Probe quantitative PCR Mix Plus (Solis Biodyne, Tartu, Estonia) and 0.25 µL of specific 20 × TaqMan Gene Expression Assay (Life Technologies), giving 5 µL of final reaction volume. Cycling parameters were: initial hold at 50 °C for 2 min and denaturation at 95 °C for 10 min, followed by 45 cycles consisting of denaturation at 95 °C for 15 s and annealing/extension at 60 °C for 1 min. After each extension phase, the fluorescence values were acquired. Duplicate samples were used for measurement and samples with a standard deviation of duplicates > 1.0 cycle threshold (Ct) were re-analyzed. The real time PCR procedure was maintained according to MIQE (Minimum information for publication of quantitative real-time PCR experiments) guidelines. The software REST 2009 (Qiagen, Hilden, Germany) served to compare relative transcript levels of genes in the cell line.
row,SMILES,ABCF3 Expression Difference
1,"COc1cc([C@H]2Oc3cc(-c4oc5cc(O)cc(O)c5c(=O)c4O)ccc3O[C@@H]2CO)ccc1O [Dehydrosilybin A, 2,3-dehydrosilybin A]",1.096
2,"COc1cc(C2Oc3cc(-c4oc5cc(O)cc(O)c5c(=O)c4O)ccc3OC2CO)ccc1O (stereo not drawn) [Dehydrosilybin AB, 2,3-dehydrosilybin]",1.326
3,"COc1cc([C@@H]2Oc3cc(-c4oc5cc(O)cc(O)c5c(=O)c4O)ccc3O[C@H]2CO)ccc1O [Dehydrosilybin B, 2,3-dehydrosilybin B]",1.963

# Same assay, conditions: A2780/DOX, 10 µM, 48 h, without doxorubicin
row,SMILES,ABCF3 Expression Difference
1,"COc1cc([C@H]2Oc3cc(-c4oc5cc(O)cc(O)c5c(=O)c4O)ccc3O[C@@H]2CO)ccc1O [Dehydrosilybin A, 2,3-dehydrosilybin A]",1.602
2,"COc1cc(C2Oc3cc(-c4oc5cc(O)cc(O)c5c(=O)c4O)ccc3OC2CO)ccc1O (stereo not drawn) [Dehydrosilybin AB, 2,3-dehydrosilybin]",1.706

# Tested on: ABCA2
# Assay: ABCA2 mRNA expression (real-time PCR)
# Format: cell-based, human
# Conditions: A2780/DOX, 10 µM combined with doxorubicin at IC25, 48 h
# Description: (§3) The A2780/DOX cell line was seeded into 5 cm Petri dishes with DMEM medium at 1 × 10^5 cell/mL. After 24 h, the dishes were washed with PBS and new DMEM medium supplemented with doxorubicin (at concentration equal to IC25) and samples (10 µM) were added. After 48 h of treatment, the cells were washed with PBS and harvested using the standard trypsin-EDTA procedure. The harvested cells were centrifuged (3200× g; 10 min, 4 °C). The supernatant was discarded, and the pellets were washed with 1.5 mL of cooled PBS (5400× g; 10 min, 4 °C). The washing step was repeated with 1 mL of PBS and the cells were centrifuged again (10,000× g; 3 min, 4 °C). Afterwards, the pellets were resuspended in 1 mL of Trizol (Invitrogen, Carlsbad, CA, USA) and transferred into pre-cooled RNase-free microfuge tubes. The samples were stored at −80 °C.
# as §1, §2
row,SMILES,ABCA2 Expression Difference
1,"COc1cc([C@H]2Oc3cc(-c4oc5cc(O)cc(O)c5c(=O)c4O)ccc3O[C@@H]2CO)ccc1O [Dehydrosilybin A, 2,3-dehydrosilybin A]",1.105
2,"COc1cc(C2Oc3cc(-c4oc5cc(O)cc(O)c5c(=O)c4O)ccc3OC2CO)ccc1O (stereo not drawn) [Dehydrosilybin AB, 2,3-dehydrosilybin]",1.046
3,"COc1cc([C@@H]2Oc3cc(-c4oc5cc(O)cc(O)c5c(=O)c4O)ccc3O[C@H]2CO)ccc1O [Dehydrosilybin B, 2,3-dehydrosilybin B]",1.078

# Tested on: A2780/DOX
# Assay: Sensitization of the MDR cell line to doxorubicin
# Format: cell-based, human
# Conditions: compound 10 µM
row,SMILES,Doxorubicin-sensitization rate (ratio of IC50 of doxorubicin and doxorubicin + tested compound)
1,"COc1cc([C@H]2Oc3cc(-c4oc5cc(O)cc(O)c5c(=O)c4O)ccc3O[C@@H]2CO)ccc1O [Dehydrosilybin A, 2,3-dehydrosilybin A]",(2.1 ± 0.3) ×
2,"COc1cc(C2Oc3cc(-c4oc5cc(O)cc(O)c5c(=O)c4O)ccc3OC2CO)ccc1O (stereo not drawn) [Dehydrosilybin AB, 2,3-dehydrosilybin]",(2.4 ± 0.2) ×
3,"COc1cc([C@@H]2Oc3cc(-c4oc5cc(O)cc(O)c5c(=O)c4O)ccc3O[C@H]2CO)ccc1O [Dehydrosilybin B, 2,3-dehydrosilybin B]",(2.0 ± 0.1) ×

# Same assay, conditions: compound 20 µM
row,SMILES,Doxorubicin-sensitization rate (ratio of IC50 of doxorubicin and doxorubicin + tested compound)
1,"COc1cc([C@H]2Oc3cc(-c4oc5cc(O)cc(O)c5c(=O)c4O)ccc3O[C@@H]2CO)ccc1O [Dehydrosilybin A, 2,3-dehydrosilybin A]",(2.5 ± 0.2) ×

# Same assay, conditions: compound 30 µM
row,SMILES,Doxorubicin-sensitization rate (ratio of IC50 of doxorubicin and doxorubicin + tested compound)
1,"COc1cc([C@H]2Oc3cc(-c4oc5cc(O)cc(O)c5c(=O)c4O)ccc3O[C@@H]2CO)ccc1O [Dehydrosilybin A, 2,3-dehydrosilybin A]",(9.5 ± 0.7) ×

# Same assay, conditions: compound 30 µM, listed as dehydrosilybin A
row,SMILES,Doxorubicin-sensitization rate (ratio of IC50 of doxorubicin and doxorubicin + tested compound) [×]
1,"COc1cc([C@H]2Oc3cc(-c4oc5cc(O)cc(O)c5c(=O)c4O)ccc3O[C@@H]2CO)ccc1O [Dehydrosilybin A, 2,3-dehydrosilybin A]",~10

# Tested on: ABCD3
# Assay: ABCD3 mRNA expression (real-time PCR)
# Format: cell-based, human
# Conditions: A2780/DOX, 10 µM combined with doxorubicin at IC25, 48 h
# Description: as §3, §1, §2
row,SMILES,ABCD3 Expression Difference
1,"COc1cc([C@H]2Oc3cc(-c4oc5cc(O)cc(O)c5c(=O)c4O)ccc3O[C@@H]2CO)ccc1O [Dehydrosilybin A, 2,3-dehydrosilybin A]",1.043
2,"COc1cc(C2Oc3cc(-c4oc5cc(O)cc(O)c5c(=O)c4O)ccc3OC2CO)ccc1O (stereo not drawn) [Dehydrosilybin AB, 2,3-dehydrosilybin]",1.288
3,"COc1cc([C@@H]2Oc3cc(-c4oc5cc(O)cc(O)c5c(=O)c4O)ccc3O[C@H]2CO)ccc1O [Dehydrosilybin B, 2,3-dehydrosilybin B]",1.347

# Same assay, conditions: A2780/DOX, 10 µM, 48 h, without doxorubicin
row,SMILES,ABCD3 Expression Difference
1,"COc1cc(C2Oc3cc(-c4oc5cc(O)cc(O)c5c(=O)c4O)ccc3OC2CO)ccc1O (stereo not drawn) [Dehydrosilybin AB, 2,3-dehydrosilybin]",1.545

# Tested on: HepG2 cells
# Assay: CAA (cellular antioxidant activity) assay
# Format: cell-based
# Conditions: Homo sapiens, HepG2, read-out: CAA, concentration necessary to halve the fluorescence response (IC50)
# Description: For the CAA assay, human hepatocellular carcinoma HepG2 cells (ATCC, Manassas, VA, USA) were seeded into a 96-well microplate at a density of 1 × 10^5 cells/well in EMEM medium supplemented with 10% of FBS, 2 mM L-glutamine and 1 × antibiotic antimycotic solution. The cells were maintained in a CO2 incubator (5% CO2, 37 °C, Memmert GmbH & Co, Büchenbach, Germany). The following day, the plates were washed with PBS and new fresh DMEM was added into each well supplemented with tested samples in the concentration range of 6.25–100 µM and fluorescent probe DCFH-DA (12.5 mg/L). After 1 h of incubation at 37 °C, the medium was replaced with AAPH solution (0.16 mg/mL in PBS), except for the negative control, where PBS was added instead. Directly, the fluorescence was recorded for 2 h in 5 min steps at 485/540 nm excitation/emission (ex./em.).
row,SMILES,IC50 [µM]
1,"COc1cc([C@H]2Oc3cc(-c4oc5cc(O)cc(O)c5c(=O)c4O)ccc3O[C@@H]2CO)ccc1O [Dehydrosilybin A, 2,3-dehydrosilybin A]",11.8 ± 0.7
2,"COc1cc(C2Oc3cc(-c4oc5cc(O)cc(O)c5c(=O)c4O)ccc3OC2CO)ccc1O (stereo not drawn) [Dehydrosilybin AB, 2,3-dehydrosilybin]",9.2 ± 0.5
3,"COc1cc([C@@H]2Oc3cc(-c4oc5cc(O)cc(O)c5c(=O)c4O)ccc3O[C@H]2CO)ccc1O [Dehydrosilybin B, 2,3-dehydrosilybin B]",12.1 ± 0.4

# Tested on: ABCC5
# Assay: ABCC5 mRNA expression (real-time PCR)
# Format: cell-based, human
# Conditions: A2780/DOX, 10 µM combined with doxorubicin at IC25, 48 h
# Description: as §3, §1, §2
row,SMILES,ABCC5 Expression Difference
1,"COc1cc([C@H]2Oc3cc(-c4oc5cc(O)cc(O)c5c(=O)c4O)ccc3O[C@@H]2CO)ccc1O [Dehydrosilybin A, 2,3-dehydrosilybin A]",1.116
2,"COc1cc(C2Oc3cc(-c4oc5cc(O)cc(O)c5c(=O)c4O)ccc3OC2CO)ccc1O (stereo not drawn) [Dehydrosilybin AB, 2,3-dehydrosilybin]",1.288
3,"COc1cc([C@@H]2Oc3cc(-c4oc5cc(O)cc(O)c5c(=O)c4O)ccc3O[C@H]2CO)ccc1O [Dehydrosilybin B, 2,3-dehydrosilybin B]",1.385
